Laboratory results reported in ChEMBL document CHEMBL5247596, “SAR studies toward discovery of emvododstat (PTC299), a potent dihydroorotate dehydrogenase (DHODH) inhibitor” (Eur J Med Chem, 2022).
pEC50: −log10 of the molar value.

How the values were obtained:
MOLM-13 = assay: Cytotoxicity against human MOLM-13 cells assessed as reduction of cell viability incubated for 3 days by CellTiter-Glo assay; type: functional, cell-based; conditions: MOLM-13, 72 h; for CC50: time 3 day
HT-1080 [1] = assay: Antitumor activity against human HT-1080 cells xenografted in mouse assessed as tumor growth inhibition at 10 mg/kg, po bid measured for 14 days relative to control; type: functional; conditions: HT-1080, 336 h, time 14 day, read-out: TGI
[2] = Metabolic stability in mouse liver microsomes assessed as intrinsic clearance at 1 uM incubated upto 60 mins in presence of NADP by LC-MS analysis; type: ADME, Microsome; conditions: read-out: CLH
[3] = AUC([…]) in mouse at 10 mg/kg, po administered via gavage measured upto 24 hrs by LC/MS-MS analysis; type: ADME, organism-based; design: dose 10 mg/kg, time < 24 hrs, route po; conditions: in vivo
HT-1080 [4] = assay: Antitumor activity against human HT-1080 cells xenografted in mouse assessed as tumor growth inhibition at 50 mg/kg, po bid measured for 14 days relative to control; type: functional; conditions: HT-1080, 336 h, time 14 day, read-out: TGI
[5] = target: Dihydroorotate dehydrogenase (quinone), mitochondrial (Homo sapiens, UniProt Q02127); assay: Inhibition of DHODH in human HeLa cells assessed as reduction in hypoxia-induced VEGF expression incubated for 48 hrs by ELISA assay; type: cell-based
Chain of Dihydroorotate dehydrogenase (quinone), mitochondrial (Q02127 whole entry): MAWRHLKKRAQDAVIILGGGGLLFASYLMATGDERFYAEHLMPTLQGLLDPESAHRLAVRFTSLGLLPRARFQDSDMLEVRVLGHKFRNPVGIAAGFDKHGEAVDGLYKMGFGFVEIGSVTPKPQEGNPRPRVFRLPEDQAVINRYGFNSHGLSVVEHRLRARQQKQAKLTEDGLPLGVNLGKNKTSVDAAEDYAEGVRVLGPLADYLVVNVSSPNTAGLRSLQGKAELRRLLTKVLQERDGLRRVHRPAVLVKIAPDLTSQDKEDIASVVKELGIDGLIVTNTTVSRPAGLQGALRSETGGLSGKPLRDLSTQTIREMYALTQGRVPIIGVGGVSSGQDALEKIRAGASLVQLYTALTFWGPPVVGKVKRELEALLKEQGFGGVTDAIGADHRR

HT-1080 [6] = assay: Antitumor activity against human HT-1080 cells xenografted in mouse assessed as tumor growth inhibition at 10 mg/kg, po bid measured for 21 days relative to control; type: functional; conditions: HT-1080, 504 h, time 21 day, read-out: TGI
HT-1080 [7] = assay: Antitumor activity against human HT-1080 cells xenografted in mouse assessed as tumor growth inhibition at 2 mg/kg, po bid measured for 21 days relative to control; type: functional; conditions: HT-1080, 504 h, time 21 day, read-out: TGI
[8] = Toxicity in CHO cells assessed as chromosomal aberration; type: cell-based, Cricetulus griseus; conditions: chinese hamster
[9] = Oral bioavailability in Beagle dog at 3 mg/kg by LC-MS/MS analysis; type: ADME, organism-based, Canis lupus familiaris; conditions: in vivo
[10] = target: Voltage-gated inwardly rectifying potassium channel KCNH2 (Homo sapiens, UniProt Q12809); assay: Inhibition of hERG (unknown origin); type: toxicity
Chain of Voltage-gated inwardly rectifying potassium channel KCNH2 (Q12809 whole entry): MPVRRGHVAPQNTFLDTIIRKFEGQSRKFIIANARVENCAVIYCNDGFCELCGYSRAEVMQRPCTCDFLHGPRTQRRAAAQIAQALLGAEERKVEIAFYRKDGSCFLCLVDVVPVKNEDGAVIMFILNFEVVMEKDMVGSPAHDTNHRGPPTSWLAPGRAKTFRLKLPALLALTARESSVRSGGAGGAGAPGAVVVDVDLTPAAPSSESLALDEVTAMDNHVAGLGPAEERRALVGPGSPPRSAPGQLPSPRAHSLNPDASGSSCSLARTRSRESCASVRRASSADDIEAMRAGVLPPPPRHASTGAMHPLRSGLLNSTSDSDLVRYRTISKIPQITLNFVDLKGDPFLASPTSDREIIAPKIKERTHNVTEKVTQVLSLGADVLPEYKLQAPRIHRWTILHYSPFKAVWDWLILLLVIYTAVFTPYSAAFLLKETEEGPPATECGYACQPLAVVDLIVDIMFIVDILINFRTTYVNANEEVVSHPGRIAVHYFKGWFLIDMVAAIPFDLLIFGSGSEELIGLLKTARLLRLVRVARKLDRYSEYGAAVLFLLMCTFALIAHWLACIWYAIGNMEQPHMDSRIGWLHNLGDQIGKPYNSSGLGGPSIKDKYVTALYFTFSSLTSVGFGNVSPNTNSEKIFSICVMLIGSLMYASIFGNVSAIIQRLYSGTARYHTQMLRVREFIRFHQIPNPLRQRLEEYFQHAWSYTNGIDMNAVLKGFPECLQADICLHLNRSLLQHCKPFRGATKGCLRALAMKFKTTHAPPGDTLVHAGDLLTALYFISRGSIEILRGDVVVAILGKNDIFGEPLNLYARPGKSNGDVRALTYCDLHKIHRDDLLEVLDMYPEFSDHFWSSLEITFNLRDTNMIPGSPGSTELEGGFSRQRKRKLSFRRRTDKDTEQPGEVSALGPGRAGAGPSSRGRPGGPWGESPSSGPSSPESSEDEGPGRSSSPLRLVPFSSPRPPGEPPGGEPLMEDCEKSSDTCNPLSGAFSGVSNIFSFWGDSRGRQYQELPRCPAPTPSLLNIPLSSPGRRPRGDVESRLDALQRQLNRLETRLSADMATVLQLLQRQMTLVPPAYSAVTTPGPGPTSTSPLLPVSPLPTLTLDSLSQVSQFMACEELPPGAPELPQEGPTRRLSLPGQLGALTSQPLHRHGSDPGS

[11] = Oral bioavailability in Sprague-Dawley rat at 3 mg/kg by LC-MS/MS analysis; type: ADME, organism-based; conditions: in vivo
[12] = Genotoxicity in Salmonella typhimurium by Ames test; type: toxicity; conditions: salmonella enterica subsp. enterica serovar typhimurium
[13] = Toxicity in po dosed rat bone marrow by micronucleus assay; type: organism-based; conditions: in vivo

Row | Structure (SMILES) | CC50 (MOLM-13) | other results
1 | COc1ccc(C2NCCc3c2[nH]c2ccccc32)cc1 (stereo not given) | > 30000 nM | –
2 | COc1ccc(C2NCCc3c2[nH]c2ccc(Cl)cc32)cc1 (stereo not given) | 1200 nM | –
3 | CCOC(=O)N1CCc2c([nH]c3ccc(Cl)cc23)C1c1ccc(OC)cc1 (stereo not given) | 25 nM | inhibition in vivo at 10 mg/kg (HT-1080 [1]): 2%; CLint scaled at 1 µM [2]: 190 mL/min/kg; AUC(0-t) at 24 h [3]: 580 ng·h/mL; inhibition in vivo at 50 mg/kg (HT-1080 [4]): 52%
4 | CCOC(=O)N1CCc2c([nH]c3cc(F)ccc23)C1c1ccc(OC)cc1 (stereo not given) | > 1000 nM | –
5 | COc1ccc(C2c3[nH]c4ccc(Cl)cc4c3CCN2C)cc1 (stereo not given) | 337 nM | –
6 | COc1ccc(C2c3[nH]c4ccc(Cl)cc4c3CCN2C(=O)OC2CCCCC2)cc1 (stereo not given) | 41 nM | –
7 | COc1ccc(C2c3[nH]c4ccc(Cl)cc4c3CCN2C(=O)OCCF)cc1 (stereo not given) | 37 nM | CLint scaled at 1 µM [2]: 227 mL/min/kg
8 | COc1ccc(C2c3[nH]c4ccc(Cl)cc4c3CCN2C(=O)Oc2ccccc2Cl)cc1 (stereo not given) | 126 nM | –
9 | COC(=O)N1CCc2c([nH]c3ccc(Cl)cc23)C1c1ccc(OC)cc1 (stereo not given) | 40 nM | CLint scaled at 1 µM [2]: 174 mL/min/kg
10 | COc1ccc(C2c3[nH]c4cc(Cl)ccc4c3CCN2C(=O)Oc2ccc(Cl)cc2)cc1 (stereo not given) | 306 nM | –
11 | COc1ccc(C2c3[nH]c4ccc(C)cc4c3CCN2C(=O)Oc2ccc(Cl)cc2)cc1 (stereo not given) | 62 nM | –
12 | COc1ccc(C2c3[nH]c4ccc(Cl)cc4c3CCN2C(=O)Oc2ccccc2C)cc1 (stereo not given) | 225 nM | –
13 | CCOC(=O)N1CCc2c([nH]c3ccc(Cl)cc23)C1c1cccc(OC)c1 (stereo not given) | 48 nM | –
14 | COc1ccc(C2c3[nH]c4ccc(Cl)cc4c3CCN2C(=O)OC(C)C)cc1 (stereo not given) | 37 nM | –
15 | CCOC(=O)N1CCc2c([nH]c3ccc(Cl)cc23)C1c1ccccc1OC (stereo not given) | 192 nM | –
16 | COc1ccc(C2c3[nH]c4ccc(Cl)cc4c3CCN2C(=O)OC(C)(C)C)cc1 (stereo not given) | 39 nM | –
17 | CCOC(=O)N1CCc2c([nH]c3cccc(F)c23)C1c1ccc(OC)cc1 (stereo not given) | > 1000 nM | –
18 | COc1ccc(C2c3[nH]c4ccc(Cl)cc4c3CCN2C(C)=O)cc1 (stereo not given) | 274 nM | –
19 | COc1ccc(C2c3[nH]c4ccc(Cl)cc4c3CCN2C=O)cc1 (stereo not given) | 325 nM | –
20 | CCOC(=O)N1CCc2c([nH]c3ccc(Cl)cc23)C1c1ccccc1 (stereo not given) | 52 nM | CLint scaled at 1 µM [2]: 92 mL/min/kg
21 | COc1ccc([C@H]2c3[nH]c4ccc(Br)cc4c3C[C@@H]3C(=O)N(C4CCCCC4)C(=S)N23)cc1 | – | pEC50 [5]: 8.52
22 | COc1ccc(C2c3[nH]c4ccc(Cl)cc4c3CCN2Cc2ccccc2)cc1 (stereo not given) | 265 nM | –
23 | CCOC(=O)N1CCc2c([nH]c3ccc(Cl)cc23)C1C1CCCCC1 (stereo not given) | 119 nM | –

Row | Structure (SMILES) | CC50 (MOLM-13) | other results
24 | COc1ccc([C@@H]2c3[nH]c4ccc(Cl)cc4c3CCN2C(=O)Oc2ccc(Cl)cc2)cc1 | > 1000 nM | –
25 | CCOC(=O)N1CCc2c([nH]c3ccc(Cl)cc23)C1c1cccc(F)c1 (stereo not given) | 53 nM | CLint scaled at 1 µM [2]: 151 mL/min/kg
26 | COc1ccc([C@H]2c3[nH]c4ccc(Cl)cc4c3C[C@@H]3C(=O)N(C4CCCCC4)C(=S)N23)cc1 | – | pEC50 [5]: 9.00
27 | CCOC(=O)N1CCc2c([nH]c3ccc(Cl)cc23)C1c1ccc(Cl)cc1 (stereo not given) | 19 nM | CLint scaled at 1 µM [2]: 221 mL/min/kg; AUC(0-t) at 24 h [3]: 550 ng·h/mL
28 | COc1ccc(C2c3[nH]c4ccc(Cl)cc4c3CCN2S(=O)(=O)c2ccccc2)cc1 (stereo not given) | > 1000 nM | –
29 | CCOC(=O)N1CCc2c([nH]c3ccc(C#N)cc23)C1c1ccc(OC)cc1 (stereo not given) | 284 nM | –
30 | CCOC(=O)N1CCc2c([nH]c3ccc(Cl)cc23)C1C (stereo not given) | > 1000 nM | –
31 | COc1ccc(C2c3[nH]c4ccc(Cl)cc4c3CCN2C(=O)Oc2cccc(C)c2)cc1 (stereo not given) | 77 nM | –
32 | COc1ccc(C2c3[nH]c4ccc(Cl)cc4c3CCN2C(=O)OC2CCC2)cc1 (stereo not given) | 28 nM | –
33 | Brc1ccc2[nH]c3c(c2c1)CCCC3n1cccc1 (stereo not given) | – | pEC50 [5]: 7.89
34 | COc1ccc(C2c3[nH]c4ccc(Cl)cc4c3CCN2C(=O)Oc2cccnc2)cc1 (stereo not given) | 117 nM | –
35 | COc1ccc(C2c3[nH]c4ccc(Cl)cc4c3CCN2C(=O)Oc2ccc(C)cc2)cc1 (stereo not given) | 31 nM | CLint scaled at 1 µM [2]: < 5 mL/min/kg; AUC(0-t) at 24 h [3]: 2200 ng·h/mL
36 | CCOC(=O)N1CCc2c([nH]c3ccc(OC)cc23)C1c1ccc(OC)cc1 (stereo not given) | 215 nM | –
37 | CCOC(=O)N1CCc2c([nH]c3ccccc23)C1c1ccc(OC)cc1 (stereo not given) | > 1000 nM | –
38 | COc1ccc(C2c3[nH]c4ccc(Cl)cc4c3CCN2C(=O)Oc2cccc(Cl)c2)cc1 (stereo not given) | 13 nM | –
39 | COc1ccc(C2c3[nH]c4cccc(Cl)c4c3CCN2C(=O)Oc2ccc(Cl)cc2)cc1 (stereo not given) | 389 nM | –
40 | CCOC(=O)N1CCc2c([nH]c3ccc(Cl)cc23)C1c1ccccc1Cl (stereo not given) | 384 nM | –
41 | CCOC(=O)N1CCc2c([nH]c3ccc(F)cc23)C1c1ccc(OC)cc1 (stereo not given) | 433 nM | –
42 | COc1ccc(C2NCCc3c2[nH]c2ccc(Br)cc32)cc1 (stereo not given) | 920 nM | –
43 | CCOC(=O)N1CCc2c([nH]c3ccc(Cl)cc23)C1Cc1ccccc1 (stereo not given) | > 1000 nM | –
44 | CCCOC(=O)N1CCc2c([nH]c3ccc(Cl)cc23)C1c1ccc(OC)cc1 (stereo not given) | 23 nM | –
45 | COc1ccc(C2c3[nH]c4ccc(Cl)cc4c3CCN2C(=O)Oc2cccc(F)c2)cc1 (stereo not given) | 27 nM | –
46 | CCOC(=O)N1CCc2c([nH]c3ccc(Cl)cc23)C1c1ccccc1F (stereo not given) | 36 nM | –

Row | Structure (SMILES) | CC50 (MOLM-13) | other results
47 | COc1ccc(OC(=O)N2CCc3c([nH]c4ccc(Cl)cc34)C2c2ccc(OC)cc2)cc1 (stereo not given) | 73 nM | –
48 | COc1ccc(C2c3c(c4cc(Cl)ccc4n3C)CCN2C(=O)Oc2ccc(Cl)cc2)cc1 (stereo not given) | – | pEC50 (MOLM-13): < 6.00
49 | COc1ccc(C2c3[nH]c4ccc(Cl)cc4c3CCN2C(=O)Oc2ccc(Cl)cc2)cc1 (stereo not given) | 12 nM | inhibition in vivo at 10 mg/kg (HT-1080 [6]): 82%; CLint scaled at 1 µM [2]: < 5 mL/min/kg; AUC(0-t) at 24 h [3]: 8600 ng·h/mL; inhibition in vivo at 2 mg/kg (HT-1080 [7]): 63%
50 | COCCOC(=O)N1CCc2c([nH]c3ccc(Cl)cc23)C1c1ccc(OC)cc1 (stereo not given) | 81 nM | CLint scaled at 1 µM [2]: 365 mL/min/kg
51 | CCNC(=S)N1CCc2c([nH]c3ccc(Cl)cc23)C1c1ccc(OC)cc1 (stereo not given) | 477 nM | –
52 | CCOC(=O)N1CCc2c([nH]c3ccc(Br)cc23)C1c1ccc(OC)cc1 (stereo not given) | 11 nM | –
53 | COc1ccc(C2c3[nH]c4ccc(Cl)cc4c3CCN2C(=O)OC2CCCC2)cc1 (stereo not given) | 36 nM | –
54 | CCOC(=O)N1CCc2c([nH]c3c(F)cccc23)C1c1ccc(OC)cc1 (stereo not given) | > 1000 nM | –
55 | CCOC(=O)N1CCc2c([nH]c3ccc(Cl)cc23)C1c1cccc(Cl)c1 (stereo not given) | 34 nM | CLint scaled at 1 µM [2]: 143 mL/min/kg
56 | CCOC(=O)N1CCc2c([nH]c3c(C)cccc23)C1c1ccc(OC)cc1 (stereo not given) | > 1000 nM | –
57 | CCN(CC)C(=O)N1CCc2c([nH]c3ccc(Cl)cc23)C1c1ccc(OC)cc1 (stereo not given) | > 1000 nM | –
58 | COc1ccc(C2c3[nH]c4ccc(Cl)cc4c3CCN2C(=O)OC2CC2)cc1 (stereo not given) | 37 nM | –
59 | COc1ccc(C2c3[nH]c4ccc(Cl)cc4c3CCN2c2ccccc2)cc1 (stereo not given) | 133 nM | –
60 | CCNC(=O)N1CCc2c([nH]c3ccc(Cl)cc23)C1c1ccc(OC)cc1 (stereo not given) | 929 nM | –
61 | COc1ccc(C2c3[nH]c4ccc(Cl)cc4c3CCN2C(=O)Oc2ccc(F)cc2)cc1 (stereo not given) | 26 nM | –
62 | CCN1CCc2c([nH]c3ccc(Cl)cc23)C1c1ccc(OC)cc1 (stereo not given) | 278 nM | –
63 | COc1ccc([C@H]2c3[nH]c4ccccc4c3C[C@@H]3C(=O)N(C4CCCCC4)C(=S)N23)cc1 | – | pEC50 [5]: 6.17
64 | CCOC(=O)N1CCc2c([nH]c3ccc(Cl)cc23)C1c1ccc(F)cc1 (stereo not given) | 36 nM | AUC(0-t) at 24 h [3]: 200 ng·h/mL
65 | COc1ccc(C2c3[nH]c4ccc(Cl)cc4c3CCN2C(=O)Oc2cncnc2)cc1 (stereo not given) | 74 nM | –
66 | COc1ccc(C2c3[nH]c4ccc(Cl)cc4c3CCN2C(=O)Oc2ccccc2F)cc1 (stereo not given) | 59 nM | –
67 | O=C(Oc1ccc(Cl)cc1)N1CCn2c(cc3ccc(Cl)cc32)C1c1ccccc1 (stereo not given) | – | pEC50 (MOLM-13): < 6.00
68 | COc1ccc(C2c3[nH]c4ccc(Cl)cc4c3CCN2C(=O)Oc2ccccc2)cc1 (stereo not given) | 34 nM | CLint scaled at 1 µM [2]: 22 mL/min/kg
69 | COc1ccc([C@H]2c3[nH]c4ccc(Cl)cc4c3CCN2C(=O)Oc2ccc(Cl)cc2)cc1 [EMVODODSTAT] | 6 nM | Activity [8]: Non-Toxic; bioavailability [9]: 8%; inhibition (INH) [10]: Not Active; bioavailability [11]: 119%; Activity [12]: Non-Toxic; Activity [13]: Non-Toxic
